Results taken from ChEMBL document CHEMBL5046315, “CRCM5484: A BET-BDII Selective Compound with Differential Anti-leukemic Drug Modulation” (J Med Chem, 2022).
Calls of active or inactive are those of the source. The rule behind the calls is not given here.

How the values were obtained:
Assay type in all cases: functional, cell-based
[1] = system: Acute myeloid leukemic cell; assay: Potentiation of birinapant-induced antileukemic activity against patient derived mouse xenografted acute myeloid leukemic cells assessed as cell viability at 2 uM measured after 72 to 144 hrs by Cell-titre glo luminescent assay; conditions: Homo sapiens, time lower […], time upper 144.0 hrs
[2] = system: Acute myeloid leukemic cell; assay: Potentiation of vorinostat-induced antileukemic activity against patient derived mouse xenografted acute myeloid leukemic cells assessed as cell viability at 0.16 to 10 uM in presence of bone-marrow derived stromal cell-conditioned medium measured after 72 to 144 hrs by cell-titre glo luminescent assay; conditions: Homo sapiens, dose 0.16-10 µM, time lower […], time upper 144.0 hrs
CCRF-CEM [3] = assay: Potentiation of AGI-5198-induced antileukemic activity against human CCRF-CEM cells at 4.3 uM in presence of bone-marrow derived stromal cell-conditioned medium
CCRF-CEM [4] = assay: Potentiation of bortezomib-induced antileukemic activity against human CCRF-CEM cells at 4.3 uM in presence of bone-marrow derived stromal cell-conditioned medium
CCRF-CEM [5] = assay: Potentiation of clofarabine-induced antileukemic activity against human CCRF-CEM cells at 4.3 uM in presence of bone-marrow derived stromal cell-conditioned medium
CCRF-CEM [6] = assay: Potentiation of dexamethasone-induced antileukemic activity against human CCRF-CEM cells at 4.3 uM in presence of bone-marrow derived stromal cell-conditioned medium
CCRF-CEM [7] = assay: Potentiation of entinostat-induced antileukemic activity against human CCRF-CEM cells at 4.3 uM in presence of bone-marrow derived stromal cell-conditioned medium
CCRF-CEM [8] = assay: Potentiation of erlotinib-induced antileukemic activity against human CCRF-CEM cells at 4.3 uM in presence of bone-marrow derived stromal cell-conditioned medium
CCRF-CEM [9] = assay: Potentiation of gefitinib-induced antileukemic activity against human CCRF-CEM cells at 4.3 uM in presence of bone-marrow derived stromal cell-conditioned medium
CCRF-CEM [10] = assay: Potentiation of GSK126-induced antileukemic activity against human CCRF-CEM cells at 4.3 uM in presence of bone-marrow derived stromal cell-conditioned medium
CCRF-CEM [11] = assay: Potentiation of luminespid-induced antileukemic activity against human CCRF-CEM cells at 4.3 uM in presence of bone-marrow derived stromal cell-conditioned medium
CCRF-CEM [12] = assay: Potentiation of -mastinib -induced antileukemic activity against human CCRF-CEM cells at 4.3 uM in presence of bone-marrow derived stromal cell-conditioned medium
CCRF-CEM [13] = assay: Potentiation of midostaurin-induced antileukemic activity against human CCRF-CEM cells at 4.3 uM in presence of bone-marrow derived stromal cell-conditioned medium
CCRF-CEM [14] = assay: Potentiation of MK2206-induced antileukemic activity against human CCRF-CEM cells at 4.3 uM in presence of bone-marrow derived stromal cell-conditioned medium
CCRF-CEM [15] = assay: Potentiation of navitoclax-induced antileukemic activity against human CCRF-CEM cells at 4.3 uM in presence of bone-marrow derived stromal cell-conditioned medium
CCRF-CEM [16] = assay: Potentiation of -nutlin 3-induced antileukemic activity against human CCRF-CEM cells at 4.3 uM in presence of bone-marrow derived stromal cell-conditioned medium
CCRF-CEM [17] = assay: Potentiation of temsirolimus-induced antileukemic activity against human CCRF-CEM cells at 4.3 uM in presence of bone-marrow derived stromal cell-conditioned medium
U-937 [18] = assay: Potentiation of afatinib-induced antileukemic activity against human U-937 cells at 4.3 uM in presence of bone-marrow derived stromal cell-conditioned medium
U-937 [19] = assay: Potentiation of AG-221-induced antileukemic activity against human U-937 cells at 4.3 uM in presence of bone-marrow derived stromal cell-conditioned medium
U-937 [20] = assay: Potentiation of alisertib-induced antileukemic activity against human U-937 cells at 4.3 uM in presence of bone-marrow derived stromal cell-conditioned medium
U-937 [21] = assay: Potentiation of arsenic-induced antileukemic activity against human U-937 cells at 4.3 uM in presence of bone-marrow derived stromal cell-conditioned medium
U-937 [22] = assay: Potentiation of AT9283-induced antileukemic activity against human U-937 cells at 4.3 uM in presence of bone-marrow derived stromal cell-conditioned medium
U-937 [23] = assay: Potentiation of GSK2879552-induced antileukemic activity against human U-937 cells at 4.3 uM in presence of bone-marrow derived stromal cell-conditioned medium
U-937 [24] = assay: Potentiation of JQ1-induced antileukemic activity against human U-937 cells at 4.3 uM in presence of bone-marrow derived stromal cell-conditioned medium
U-937 [25] = assay: Potentiation of quizartinib-induced antileukemic activity against human U-937 cells at 4.3 uM in presence of bone-marrow derived stromal cell-conditioned medium
U-937 [26] = assay: Potentiation of topotecan-induced antileukemic activity against human U-937 cells at 4.3 uM in presence of bone-marrow derived stromal cell-conditioned medium
MOLM-14 [27] = assay: Potentiation of AG-221-induced antileukemic activity against human MOLM-14 cells at 4.3 uM in presence of bone-marrow derived stromal cell-conditioned medium
MOLM-14 [28] = assay: Potentiation of AraC-induced antileukemic activity against human MOLM-14 cells at 4.3 uM in presence of bone-marrow derived stromal cell-conditioned medium
MOLM-14 [29] = assay: Potentiation of bortezomib-induced antileukemic activity against human MOLM-14 cells at 4.3 uM in presence of bone-marrow derived stromal cell-conditioned medium
MOLM-14 [30] = assay: Potentiation of cladribine-induced antileukemic activity against human MOLM-14 cells at 4.3 uM in presence of bone-marrow derived stromal cell-conditioned medium
MOLM-14 [31] = assay: Potentiation of daunorubicine-induced antileukemic activity against human MOLM-14 cells at 4.3 uM in presence of bone-marrow derived stromal cell-conditioned medium
MOLM-14 [32] = assay: Potentiation of everolimus-induced antileukemic activity against human MOLM-14 cells at 4.3 uM in presence of bone-marrow derived stromal cell-conditioned medium
MOLM-14 [33] = assay: Potentiation of idarubicin-induced antileukemic activity against human MOLM-14 cells at 4.3 uM in presence of bone-marrow derived stromal cell-conditioned medium
MOLM-14 [34] = assay: Potentiation of luminespid-induced antileukemic activity against human MOLM-14 cells at 4.3 uM in presence of bone-marrow derived stromal cell-conditioned medium
MOLM-14 [35] = assay: Potentiation of nelarabine-induced antileukemic activity against human MOLM-14 cells at 4.3 uM in presence of bone-marrow derived stromal cell-conditioned medium
MOLM-14 [36] = assay: Potentiation of -nutlin 3-induced antileukemic activity against human MOLM-14 cells at 4.3 uM in presence of bone-marrow derived stromal cell-conditioned medium
MOLM-14 [37] = assay: Potentiation of panobinostat-induced antileukemic activity against human MOLM-14 cells at 4.3 uM in presence of bone-marrow derived stromal cell-conditioned medium
MOLM-14 [38] = assay: Potentiation of tipifarnib-induced antileukemic activity against human MOLM-14 cells at 4.3 uM in presence of bone-marrow derived stromal cell-conditioned medium
MOLM-14 [39] = assay: Potentiation of volasertib-induced antileukemic activity against human MOLM-14 cells at 4.3 uM in presence of bone-marrow derived stromal cell-conditioned medium
MOLM-14 [40] = assay: Potentiation of VX680-induced antileukemic activity against human MOLM-14 cells at 4.3 uM in presence of bone-marrow derived stromal cell-conditioned medium

For `CC(=O)N1CCc2c(sc3nc(SCC(=O)Nc4cccnc4C)n(Cc4ccco4)c(=O)c23)C1`, which Activity [1] is on record?
Its Activity is “Active”.

And the Activity [2]?
Its Activity is “Active”.

And the Activity (CCRF-CEM [3])?
Its Activity is “inactive”.

And the Activity (CCRF-CEM [4])?
The Activity was “inactive”.

What about the Activity (CCRF-CEM [5]) of the same compound?
Its Activity is “inactive”.

And the Activity (CCRF-CEM [6])?
Its Activity is “inactive”.

And the Activity (CCRF-CEM [7])?
The Activity was “inactive”.

And the Activity (CCRF-CEM [8])?
Its Activity is “inactive”.

And the Activity (CCRF-CEM [9])?
The Activity was “inactive”.

And the Activity (CCRF-CEM [10])?
The Activity was “inactive”.

And the Activity (CCRF-CEM [11])?
The Activity was “inactive”.

What about the Activity (CCRF-CEM [12]) of the same compound?
Its Activity is “inactive”.

What about the Activity (CCRF-CEM [13]) of the same compound?
Its Activity is “inactive”.

What about the Activity (CCRF-CEM [14]) of the same compound?
Its Activity is “inactive”.

And the Activity (CCRF-CEM [15])?
Its Activity is “inactive”.

What about the Activity (CCRF-CEM [16]) of the same compound?
The Activity was “inactive”.

What about the Activity (CCRF-CEM [17]) of the same compound?
The Activity was “inactive”.

What about the Activity (U-937 [18]) of the same compound?
Its Activity is “inactive”.

What about the Activity (U-937 [19]) of the same compound?
Its Activity is “inactive”.

And the Activity (U-937 [20])?
The Activity was “inactive”.

What about the Activity (U-937 [21]) of the same compound?
Its Activity is “inactive”.

What about the Activity (U-937 [22]) of the same compound?
Its Activity is “inactive”.

And the Activity (U-937 [23])?
The Activity was “inactive”.

And the Activity (U-937 [24])?
Its Activity is “inactive”.

What about the Activity (U-937 [25]) of the same compound?
The Activity was “inactive”.

And the Activity (U-937 [26])?
Its Activity is “inactive”.

What about the Activity (MOLM-14 [27]) of the same compound?
The Activity was “inactive”.

What about the Activity (MOLM-14 [28]) of the same compound?
Its Activity is “inactive”.

And the Activity (MOLM-14 [29])?
Its Activity is “inactive”.

What about the Activity (MOLM-14 [30]) of the same compound?
The Activity was “inactive”.

What about the Activity (MOLM-14 [31]) of the same compound?
Its Activity is “inactive”.

What about the Activity (MOLM-14 [32]) of the same compound?
The Activity was “inactive”.

And the Activity (MOLM-14 [33])?
The Activity was “inactive”.

What about the Activity (MOLM-14 [34]) of the same compound?
The Activity was “inactive”.

What about the Activity (MOLM-14 [35]) of the same compound?
The Activity was “inactive”.

And the Activity (MOLM-14 [36])?
The Activity was “inactive”.

What about the Activity (MOLM-14 [37]) of the same compound?
The Activity was “inactive”.

And the Activity (MOLM-14 [38])?
The Activity was “inactive”.

And the Activity (MOLM-14 [39])?
Its Activity is “inactive”.

What about the Activity (MOLM-14 [40]) of the same compound?
Its Activity is “inactive”.
